Results published in PubChem BioAssay AID248 (DTP/NCI, 2004).
“And” between values parts separate entries of the source, which are not always exact repeats. Equal values may be shown once. Inconclusive results and toxic doses are left out. Rule as the data show it: active = T/C of 150% or more; inactive = T/C below 125%.

System: L1210 leukemia ip in BDF1 mice, survival T/C
Assay: NCI In Vivo Anticancer Drug Screen. Data for tumor model L1210 Leukemia (intraperitoneal) in B6D2F1 (BDF1) mice
Conditions: endpoint: mean survival time, higher = longer survival
Method in brief: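 In this screen, tumor-bearing mice given compound are compared to those given vehicle, and their survival values are reported as a treated-to-control quotient.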

[1] = dose: 100.0 mg/kg/injection, schedule: Q01DX009 (ip), vehicle: Klucel (hydroxypropylcellulose) (HPC)
[2] = dose: 200.0 mg/kg/injection, schedule: Q01DX009 (ip), vehicle: Klucel (hydroxypropylcellulose) (HPC)
[3] = dose: 400.0 mg/kg/injection, schedule: Q01DX009 (ip), vehicle: Klucel (hydroxypropylcellulose) (HPC)
[4] = dose: 100.0 mg/kg/injection, schedule: Q04DX003 (ip), vehicle: saline with Tween-80
[5] = dose: 200.0 mg/kg/injection, schedule: Q04DX003 (ip), vehicle: saline with Tween-80
[6] = dose: 400.0 mg/kg/injection, schedule: Q04DX003 (ip), vehicle: saline with Tween-80
[7] = dose: 12.5 mg/kg/injection, schedule: Q01DX009 (ip), vehicle: Klucel (hydroxypropylcellulose) (HPC)
[8] = dose: 25.0 mg/kg/injection, schedule: Q01DX009 (ip), vehicle: Klucel (hydroxypropylcellulose) (HPC)
[9] = dose: 50.0 mg/kg/injection, schedule: Q01DX009 (ip), vehicle: Klucel (hydroxypropylcellulose) (HPC)
[10] = dose: 100.0 mg/kg/injection, schedule: Q01DX009 (ip), vehicle: saline with Tween-80
[11] = dose: 200.0 mg/kg/injection, schedule: Q01DX009 (ip), vehicle: saline with Tween-80
[12] = dose: 400.0 mg/kg/injection, schedule: Q01DX009 (ip), vehicle: saline with Tween-80
[13] = dose: 100.0 mg/kg/injection, schedule: Q04DX002 (ip), vehicle: saline
[14] = dose: 200.0 mg/kg/injection, schedule: Q04DX002 (ip), vehicle: saline

Measured: T/C

c1ccc(CN2CCn3nccc32)cc1
inactive: dose: 25.0 mg/kg/injection, schedule: Q01DX009 (ip), vehicle: other 104 % of control | dose: 50.0 mg/kg/injection, schedule: Q01DX009 (ip), vehicle: other 96 % of control | dose: 100.0 mg/kg/injection, schedule: Q01DX009 (ip), vehicle: other 104 % of control | dose: 200.0 mg/kg/injection, schedule: Q01DX009 (ip), vehicle: other 95 % of control

CN(C)N=Nc1ccccc1I
inactive: [1] 103 % of control | [2] 104 % of control and 105 % of control | [3] 113 % of control and 116 % of control | dose: 600.0 mg/kg/injection, schedule: Q01DX009 (ip), vehicle: Klucel (hydroxypropylcellulose) (HPC) 115 % of control

CC(=O)OC1CCC2C3CCc4cc(OC(=S)N(C)C)ccc4C3CCC12C (centres undefined)
inactive: [4] 101 % of control | [5] 101 % of control | [6] 110 % of control

Cc1cc(N(CCCl)CCCl)ccc1C=Nc1ccc(C(=O)O)c(O)c1
inactive: dose: 100.0 mg/kg/injection, schedule: Q01DX001 (ip), vehicle: carboxymethylcellulose (CMC) 111 % of control | dose: 200.0 mg/kg/injection, schedule: Q01DX001 (ip), vehicle: carboxymethylcellulose (CMC) 95 % of control

CC(Cc1ccccc1)NCCc1c2ccccc2nc2ccccc12 (centres undefined)
inactive: [7] 101 % of control | [8] 102 % of control | [9] 98 % of control | [1] 104 % of control | [2] 91 % of control

CC12CCCC(=O)C1CC/C(=C\c1ccco1)C2=O (centres undefined)
inactive: dose: 100.0 mg/kg/injection, schedule: Q01DX009 (ip), vehicle: saline 109 % of control | dose: 100.0 mg/kg/injection, schedule: Q04DX003 (ip), vehicle: saline 102 % of control | dose: 200.0 mg/kg/injection, schedule: Q01DX009 (ip), vehicle: saline 98 % of control | dose: 200.0 mg/kg/injection, schedule: Q04DX003 (ip), vehicle: saline 104 % of control | dose: 400.0 mg/kg/injection, schedule: Q01DX009 (ip), vehicle: saline 114 % of control | dose: 400.0 mg/kg/injection, schedule: Q04DX003 (ip), vehicle: saline 104 % of control

COc1cc(OC)c(/C=C2\N=C(c3ccccc3)OC2=O)c(OC)c1
inactive: dose: 100.0 mg/kg/injection, schedule: Q04DX002 (ip), vehicle: other 91 % of control | dose: 200.0 mg/kg/injection, schedule: Q04DX002 (ip), vehicle: other 102 % of control | dose: 400.0 mg/kg/injection, schedule: Q04DX002 (ip), vehicle: other 88 % of control

CCCCCCCCC1CCC(N)CC1 (centres undefined)
inactive: [1] 95 % of control | dose: 100.0 mg/kg/injection, schedule: Q04DX003 (ip), vehicle: Klucel (hydroxypropylcellulose) (HPC) 95 % of control | [2] 93 % of control | dose: 200.0 mg/kg/injection, schedule: Q04DX003 (ip), vehicle: Klucel (hydroxypropylcellulose) (HPC) 101 % of control | dose: 400.0 mg/kg/injection, schedule: Q04DX003 (ip), vehicle: Klucel (hydroxypropylcellulose) (HPC) 98 % of control

O=C1C(Br)C2CCC1C2C(=O)O (centres undefined)
inactive: [10] 103 % of control | [4] 87 % of control | [11] 89 % of control and 96 % of control | [5] 92 % of control | [12] 100 % of control and 94 % of control | [6] 101 % of control

CC(C)=CCC/C(C)=C/CC(N)Cc1ccccc1 (centres undefined)
inactive: [7] 94 % of control | [8] 97 % of control | [9] 92 % of control

O=C(/C=C/c1ccccc1)Nc1ccccc1C(F)(F)F
inactive: [1] 98 % of control | [2] 104 % of control | [3] 101 % of control

CC(=O)Nc1ccc(F)c(F)c1
inactive: dose: 100.0 mg/kg/injection, schedule: Q04DX002 (ip), vehicle: Klucel (hydroxypropylcellulose) (HPC) 98 % of control | dose: 200.0 mg/kg/injection, schedule: Q04DX002 (ip), vehicle: Klucel (hydroxypropylcellulose) (HPC) 113 % of control | dose: 400.0 mg/kg/injection, schedule: Q04DX002 (ip), vehicle: Klucel (hydroxypropylcellulose) (HPC) 121 % of control

CC(C)c1ccc(/C=C/C(=O)c2ccc(F)cc2)cc1
inactive: [10] 90 % of control | dose: 100.0 mg/kg/injection, schedule: Q04DX002 (ip), vehicle: saline with Tween-80 97 % of control | [11] 90 % of control | dose: 200.0 mg/kg/injection, schedule: Q04DX002 (ip), vehicle: saline with Tween-80 86 % of control | [12] 93 % of control | dose: 400.0 mg/kg/injection, schedule: Q04DX002 (ip), vehicle: saline with Tween-80 97 % of control

CC(O)C#N (centres undefined)
inactive: dose: 0.63 mg/kg/injection, schedule: Q04DX003 (ip), vehicle: saline 102 % of control | dose: 1.25 mg/kg/injection, schedule: Q04DX003 (ip), vehicle: saline 115 % of control | dose: 2.5 mg/kg/injection, schedule: Q04DX003 (ip), vehicle: saline 115 % of control | dose: 5.0 mg/kg/injection, schedule: Q04DX003 (ip), vehicle: saline 103 % of control

O=[N+]([O-])c1ccc(N/N=C2\Cc3ccccc3Cc3ccccc32)c([N+](=O)[O-])c1
inactive: dose: 50.0 mg/kg/injection, schedule: Q01DX001 (ip), vehicle: Klucel (hydroxypropylcellulose) (HPC) 90 % of control | dose: 100.0 mg/kg/injection, schedule: Q01DX001 (ip), vehicle: Klucel (hydroxypropylcellulose) (HPC) 98 % of control | dose: 200.0 mg/kg/injection, schedule: Q01DX001 (ip), vehicle: Klucel (hydroxypropylcellulose) (HPC) 90 % of control

O=C(O)CC1C=CCC1 (centres undefined)
inactive: dose: 25.0 mg/kg/injection, schedule: Q04DX003 (ip), vehicle: saline 90 % of control

CCCCCOC(=O)C1OC1(CC)c1ccccc1 (centres undefined)
inactive: [13] 97 % of control | [14] 101 % of control | dose: 400.0 mg/kg/injection, schedule: Q04DX002 (ip), vehicle: saline 120 % of control

C=C1CC(OC(C)=O)C2C(C)C(=O)OC2C2C1CC1OC12C (centres undefined)
inactive: [13] 92 % of control | [14] 92 % of control

CC(=O)[O][Hg][c]1c(N)c(Cl)cc(C)c1F
inactive: dose: 10.0 mg/kg/injection, schedule: Q01DX001 (ip), vehicle: Klucel (hydroxypropylcellulose) (HPC) 101 % of control | dose: 20.0 mg/kg/injection, schedule: Q01DX001 (ip), vehicle: Klucel (hydroxypropylcellulose) (HPC) 86 % of control

CCCCC(/C=C/c1ccc2ccccc2n1)CC (centres undefined)
inactive: dose: 50.0 mg/kg/injection, schedule: Q01DX001 (ip), vehicle: saline 103 % of control | dose: 100.0 mg/kg/injection, schedule: Q01DX001 (ip), vehicle: saline 113 % of control

Nc1nc(N)c(-c2ccc(Cl)c(Cl)c2)c(CCc2ccc(S(=O)(=O)F)cc2)n1
inactive: [1] 112 % of control | [2] 98 % of control

CCOC(=O)c1ccc(NCC(=N)N)cc1
inactive: dose: 100.0 mg/kg/injection, schedule: Q01DX001 (ip), vehicle: saline sonified 103 % of control | dose: 200.0 mg/kg/injection, schedule: Q01DX001 (ip), vehicle: saline sonified 100 % of control

CSCSCC(CO)NS(=O)(=O)c1ccc(C)cc1 (centres undefined)
inactive: [10] 107 % of control | [4] 103 % of control | [11] 109 % of control | [5] 97 % of control | [12] 98 % of control | [6] 102 % of control

Cc1c(C)c2c(C(=O)O)c3ccccc3nc2c2ccccc12
inactive: dose: 50.0 mg/kg/injection, schedule: Q01DX001 (ip), vehicle: alcohol 96 % of control | dose: 100.0 mg/kg/injection, schedule: Q01DX001 (ip), vehicle: alcohol 102 % of control | dose: 200.0 mg/kg/injection, schedule: Q01DX001 (ip), vehicle: alcohol 92 % of control | dose: 400.0 mg/kg/injection, schedule: Q01DX001 (ip), vehicle: alcohol 105 % of control
